Reference: ChEMBL document CHEMBL1137188, “Substituted 6-phenyl-pyridin-2-ylamines: selective and potent inhibitors of neuronal nitric oxide synthase” (Bioorg Med Chem Lett, 2004)

What was measured:
Nitric oxide synthase 1 = Nitric oxide synthase 1 (Homo sapiens, UniProt P29475); experiment: Inhibitory activity against neuronal nitric oxide synthase in human
Nitric oxide synthase 3 = target: T1, Nitric oxide synthase 3 (Homo sapiens, UniProt P29474); experiment: Inhibitory activity against endothelial nitric oxide synthase in human
T1 sequence (P29474 whole entry): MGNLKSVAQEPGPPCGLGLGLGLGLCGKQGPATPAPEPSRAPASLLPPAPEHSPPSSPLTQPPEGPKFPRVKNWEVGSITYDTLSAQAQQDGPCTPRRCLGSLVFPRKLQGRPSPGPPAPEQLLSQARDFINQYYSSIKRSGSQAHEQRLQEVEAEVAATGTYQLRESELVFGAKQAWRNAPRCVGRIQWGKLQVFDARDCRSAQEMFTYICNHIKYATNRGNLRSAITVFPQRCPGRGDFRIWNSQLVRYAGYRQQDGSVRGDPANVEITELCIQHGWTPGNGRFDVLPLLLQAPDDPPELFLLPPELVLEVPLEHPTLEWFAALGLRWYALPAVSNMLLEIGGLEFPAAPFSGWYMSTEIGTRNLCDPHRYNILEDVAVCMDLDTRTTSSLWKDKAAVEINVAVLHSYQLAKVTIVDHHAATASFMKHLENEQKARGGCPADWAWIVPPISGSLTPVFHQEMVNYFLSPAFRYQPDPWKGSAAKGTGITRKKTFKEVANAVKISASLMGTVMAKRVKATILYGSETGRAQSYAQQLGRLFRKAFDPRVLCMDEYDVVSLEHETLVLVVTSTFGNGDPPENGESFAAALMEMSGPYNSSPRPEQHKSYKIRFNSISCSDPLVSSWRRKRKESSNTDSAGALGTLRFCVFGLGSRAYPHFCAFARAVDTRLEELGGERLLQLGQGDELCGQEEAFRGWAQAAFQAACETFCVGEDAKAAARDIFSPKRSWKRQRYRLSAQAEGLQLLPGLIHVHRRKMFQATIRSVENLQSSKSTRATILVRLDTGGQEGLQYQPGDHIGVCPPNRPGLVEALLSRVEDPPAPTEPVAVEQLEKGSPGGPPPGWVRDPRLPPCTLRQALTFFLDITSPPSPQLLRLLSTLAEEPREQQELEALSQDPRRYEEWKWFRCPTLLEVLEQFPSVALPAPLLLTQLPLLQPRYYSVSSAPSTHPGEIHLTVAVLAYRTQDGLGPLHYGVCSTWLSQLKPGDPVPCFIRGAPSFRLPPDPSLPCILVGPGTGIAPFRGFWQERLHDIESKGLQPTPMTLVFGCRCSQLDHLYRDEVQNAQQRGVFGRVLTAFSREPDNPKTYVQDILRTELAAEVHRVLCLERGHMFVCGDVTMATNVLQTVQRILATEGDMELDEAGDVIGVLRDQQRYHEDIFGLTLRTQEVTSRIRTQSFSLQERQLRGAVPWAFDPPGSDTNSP

Nitric oxide synthase 1, sequence (P29475 whole entry): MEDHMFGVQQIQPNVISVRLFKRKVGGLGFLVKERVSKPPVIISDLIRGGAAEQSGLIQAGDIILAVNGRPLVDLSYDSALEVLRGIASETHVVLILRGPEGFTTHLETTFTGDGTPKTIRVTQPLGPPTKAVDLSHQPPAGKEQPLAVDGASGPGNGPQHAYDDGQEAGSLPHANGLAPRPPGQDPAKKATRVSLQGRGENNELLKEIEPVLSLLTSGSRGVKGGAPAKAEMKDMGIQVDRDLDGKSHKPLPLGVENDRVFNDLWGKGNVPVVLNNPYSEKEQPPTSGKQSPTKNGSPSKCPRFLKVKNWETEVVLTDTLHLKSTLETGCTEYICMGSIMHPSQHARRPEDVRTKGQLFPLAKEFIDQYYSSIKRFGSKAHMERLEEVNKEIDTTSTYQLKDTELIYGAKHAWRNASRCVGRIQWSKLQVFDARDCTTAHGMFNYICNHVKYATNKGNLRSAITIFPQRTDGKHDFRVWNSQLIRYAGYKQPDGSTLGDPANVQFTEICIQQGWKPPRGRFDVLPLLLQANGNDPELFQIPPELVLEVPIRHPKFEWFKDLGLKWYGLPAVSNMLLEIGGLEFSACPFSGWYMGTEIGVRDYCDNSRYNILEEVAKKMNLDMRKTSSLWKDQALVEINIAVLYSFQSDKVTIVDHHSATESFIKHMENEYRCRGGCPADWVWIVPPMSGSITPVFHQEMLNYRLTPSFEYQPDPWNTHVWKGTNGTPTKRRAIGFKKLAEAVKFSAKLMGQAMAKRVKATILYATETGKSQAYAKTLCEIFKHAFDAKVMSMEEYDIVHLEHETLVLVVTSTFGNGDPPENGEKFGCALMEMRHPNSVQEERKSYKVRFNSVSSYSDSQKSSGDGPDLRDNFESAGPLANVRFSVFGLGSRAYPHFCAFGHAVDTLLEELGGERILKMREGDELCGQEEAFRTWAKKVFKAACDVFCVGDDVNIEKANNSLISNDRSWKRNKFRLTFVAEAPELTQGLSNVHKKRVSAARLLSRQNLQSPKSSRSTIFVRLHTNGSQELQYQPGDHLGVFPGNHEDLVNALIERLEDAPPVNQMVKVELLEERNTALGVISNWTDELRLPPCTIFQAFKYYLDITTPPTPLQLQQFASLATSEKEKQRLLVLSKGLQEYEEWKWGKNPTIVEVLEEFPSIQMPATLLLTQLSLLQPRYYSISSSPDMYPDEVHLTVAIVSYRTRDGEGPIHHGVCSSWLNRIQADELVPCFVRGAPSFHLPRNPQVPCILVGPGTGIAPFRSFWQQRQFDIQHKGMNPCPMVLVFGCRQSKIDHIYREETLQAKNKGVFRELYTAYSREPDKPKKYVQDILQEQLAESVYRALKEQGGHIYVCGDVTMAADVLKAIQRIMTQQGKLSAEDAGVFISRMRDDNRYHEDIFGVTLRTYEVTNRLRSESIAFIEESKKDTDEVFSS

| SMILES | IC50 (Nitric oxide synthase 1) [nM] | IC50 (Nitric oxide synthase 3) [nM] |
| --- | --- | --- |
| CCc1cc(-c2cccc(N)n2)c(OC)cc1OCCN(C)C | 58 | 3710 |
| COc1cc(-c2cccc(N)n2)c(OC)cc1CCN(C)C | 235 | > 32000 |
| COc1cc(-c2cccc(N)n2)c(OC)cc1CCCN(C)C | 200 | > 32000 |
| COc1cc(-c2cccc(N)n2)c(OC)cc1OCCN(C)C | 112 | 21900 |
| CCc1cc(-c2cccc(N)n2)c(OC)cc1CCCN(C)C | 75 | > 7700 |
| COc1cc(-c2cccc(N)n2)c(OC)cc1CN(C)C | 810 | > 32000 |
| CCc1cc(-c2cccc(N)n2)c(OC)cc1CCN(C)C | 75 | 16500 |
| CCc1cc(-c2cccc(N)n2)c(OC)cc1CN(C)C |  | 8830 |
